Molecular target: T1, Menin (Homo sapiens, UniProt O00255)
T1 sequence (O00255 whole entry): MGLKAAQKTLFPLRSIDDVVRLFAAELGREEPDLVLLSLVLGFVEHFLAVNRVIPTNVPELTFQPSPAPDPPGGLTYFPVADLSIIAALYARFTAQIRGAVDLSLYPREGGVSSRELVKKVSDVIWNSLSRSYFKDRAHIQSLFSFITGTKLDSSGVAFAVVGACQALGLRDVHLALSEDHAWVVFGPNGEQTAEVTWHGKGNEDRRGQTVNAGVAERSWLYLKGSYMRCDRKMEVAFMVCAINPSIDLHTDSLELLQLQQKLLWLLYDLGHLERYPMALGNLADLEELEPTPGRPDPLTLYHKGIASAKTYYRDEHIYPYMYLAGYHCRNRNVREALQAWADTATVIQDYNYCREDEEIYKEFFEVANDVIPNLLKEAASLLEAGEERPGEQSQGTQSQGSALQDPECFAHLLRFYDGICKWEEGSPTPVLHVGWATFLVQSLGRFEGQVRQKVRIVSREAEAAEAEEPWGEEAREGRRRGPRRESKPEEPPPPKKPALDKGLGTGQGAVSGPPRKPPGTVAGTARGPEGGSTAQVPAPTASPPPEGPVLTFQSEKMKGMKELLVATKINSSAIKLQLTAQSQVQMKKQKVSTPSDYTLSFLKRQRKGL
Assay: Primary Assay Used to Determine Potency of MEN1 Activity Inhibition
Procedure: Compound activity was determined using recombinant MEN1 protein (Creativebiomart, Cat #MEN1-35H) and a custom fluorescein-labeled MLL4-43 peptide (Eton Bioscience Inc.). Interaction between MEN1 and MLL4-43 in the presence of compounds was determined by fluorescence polarization assay using a Microplate Reader ClarioStar Plus. The reaction was carried out in assay buffer (50 mM TRIS-HCl pH 7.4-7.6, 50 mM NaCl, 1 mM DTT, 0.1 mg/ml BSA). The compounds were dispensed on a 384 well Diamond Well Plate (Axigen, Cat #P-384-120SQ-C-S) using the Biomek FX liquid handling system at 100× solutions of compounds in DMSO. 2×MEN1 mix (final concentration of MEN1 10 nM) was prepared in Assay buffer and 10 μl of mixture per well was added into 384 w white Reaction plate with NBS (Corning, Cat #4513). 10 μl of Assay buffer w/o MEN1 was used for negative control. Plates were centrifuged for 1 min at 100 g. Next step the Compounds were added to Reaction plate using Biomek station via following steps: 3 μl of 100× compounds (in DMSO) were mixed thoroughly with 27 μl Assay Buffer, then 2 μl of this mixture was added to Reaction plate with 10 μl of MEN1 mix. Plates were centrifuged for 1 min at 100 g and incubated for 20 min at room temperature. Next 8 μL of MLL4-43 peptide per well was added to final concentration of MLL 0.5 nM. Plates were incubated for 1 hour at room temperature. Then fluorescence polarization was measured using Microplate Reader.

| Structure (SMILES) | EC50 |
| --- | --- |
| Cc1c(CN2CCC3(CC2)CN(c2ncnc4ccc(CC(F)(F)F)cc24)C3)ccc2c1cc(C#N)n2CC12CC(N3CC(=O)NS3(=O)=O)(C1)C2 [US20250163061, Compound 62] | < 75 nM |
| Cc1c(CN2CCC3(CC2)CN(c2ncnc4ccc(CC(F)(F)F)cc24)C3)ccc2c1cc(C#N)n2CC1CNC(=O)C(C)O1 (configuration not stated) [US20250163061, Compound 7] | < 75 nM |
| Cc1c(CN2CCC3(CC2)CN(c2ncnc4ccc(CC(F)(F)F)cc24)C3)ccc2c1cc(C#N)n2CC1CN(C)S(=O)(=O)CO1 (configuration not stated) [US20250163061, Compound 16] | < 75 nM |
| CCCCS(=O)(=O)N1CCN(C(C)Cn2c(C#N)cc3c(C)c(CN4CCC5(CC4)CN(c4ncnc6ccc(CC(F)(F)F)cc46)C5)ccc32)CC1 (configuration not stated) [US20250163061, Compound 17] | < 75 nM |
| Cc1c(CN2CCC3(CC2)CN(c2ncnc4ccc(CC(F)(F)F)cc24)C3)ccc2c1cc(C#N)n2CC1CCNC(=O)C1 (configuration not stated) [US20250163061, Compound 22] | < 75 nM |
| Cc1c(CN2CCC3(CC2)CN(c2ncnc4ccc(CC(F)(F)F)cc24)C3)ccc2c1cc(C#N)n2CC12CC(NS(N)(=O)=O)(C1)C2 [US20250163061, Compound 61] | < 75 nM |
| Cc1c(CN2CCC3(CC2)CN(c2ncnc4ccc(CC(F)(F)F)cc24)C3)ccc2c1cc(C#N)n2CC1CNC(=O)CCO1 (configuration not stated) [US20250163061, Compound 87] | < 75 nM |
| Cc1c(CN2CCC3(CC2)CN(c2ncnc4ccc(CC(F)(F)F)cc24)C3)ccc2c1cc(C#N)n2[C@@H](C)CN1CCN(S(C)(=O)=O)CC1 [US20250163061, Compound 24] | < 75 nM |
| Cc1c(CN2CCC3(CC2)CN(c2ncnc4ccc(CC(F)(F)F)cc24)C3)ccc2c1cc(C#N)n2C[C@H](C)N1CCN(S(C)(=O)=O)[C@@H](C)C1 [US20250163061, Compound 28] | < 75 nM |
| Cc1c(CN2CCC3(CC2)CN(c2ncnc4ccc(CC(F)(F)F)cc24)C3)ccc2c1cc(C#N)n2CCCCN1CCN(S(C)(=O)=O)CC1 [US20250163061, Compound 44] | < 75 nM |
| Cc1c(CN2CCC3(CC2)CN(c2ncnc4ccc(CC(F)(F)F)cc24)C3)ccc2c1cc(C#N)n2CC1CCNC(=O)CC1 (configuration not stated) [US20250163061, Compound 5] | < 75 nM |
| Cc1c(CN2CCC3(CC2)CN(c2ncnc4ccc(CC(F)(F)F)cc24)C3)ccc2c1cc(C#N)n2CC12CC(NS(C)(=O)=O)(C1)C2 | < 75 nM |
| Cc1c(CN2CCC3(CC2)CN(c2ncnc4ccc(CC(F)(F)F)cc24)C3)ccc2c1cc(C#N)n2C(C)CCN1CCN(S(C)(=O)=O)CC1 (configuration not stated) [US20250163061, Compound 13] | < 75 nM |
| Cc1c(CN2CCC3(CC2)CN(c2ncnc4cc(F)c(CC(F)(F)F)cc24)C3)ccc2c1cc(C#N)n2CC(C)N1CCN(S(C)(=O)=O)CC1 (configuration not stated) [US20250163061, Compound 30] | < 75 nM |
| Cc1c(CN2CCC3(CC2)CN(c2ncnc4ccc(CC(F)(F)F)cc24)C3)ccc2c1cc(C#N)n2CC(C)N1CCN(S(C)(=O)=O)CC1 (configuration not stated) [US20250163061, Compound 71] | < 75 nM |
| Cc1c(CN2CCC3(CC2)CN(c2ncnc4ccc(CC(F)(F)F)cc24)C3)ccc2c1cc(C#N)n2CC1CCC(=O)N1 (configuration not stated) [US20250163061, Compound 52] | < 75 nM |
| C=CC(=O)N1CCN(C(C)Cn2c(C#N)cc3c(C)c(CN4CCC5(CC4)CN(c4ncnc6ccc(CC(F)(F)F)cc46)C5)ccc32)CC1 (configuration not stated) [US20250163061, Compound 63] | < 75 nM |
| CC(=O)NC12CC(Cn3c(C#N)cc4c(C)c(CN5CCC6(CC5)CN(c5ncnc7ccc(CC(F)(F)F)cc57)C6)ccc43)(C1)C2 [US20250163061, Compound 59] | < 75 nM |
| CCN1CC(Cn2c(C#N)cc3c(C)c(CN4CCC5(CC4)CN(c4ncnc6ccc(CC(F)(F)F)cc46)C5)ccc32)OCC1=O (configuration not stated) [US20250163061, Compound 104] | < 75 nM |

| Structure (SMILES) | EC50 |
| --- | --- |
| C=CC(=O)N1CCN(CCn2c(C#N)cc3cc(CN4CCC5(CC4)CN(c4ncnc6ccc(CC(F)(F)F)cc46)C5)ccc32)CC1 [US20250163061, Compound 86] | 75 to 500 nM |
| Cc1c(CN2CCC3(CC2)CN(c2ncnc4ccc(CC(F)(F)F)cc24)C3)ccc2c1cc(C#N)n2C[C@@H](C)N1CCN(S(C)(=O)=O)[C@@H](C)C1 [US20250163061, Compound 27] | < 75 nM |
| C=CC(=O)N1CCN(CCCCn2c(C#N)cc3c(C)c(CN4CCC5(CC4)CN(c4ncnc6ccc(CC(F)(F)F)cc46)C5)ccc32)CC1 [US20250163061, Compound 65] | < 75 nM |
| Cc1c(CN2CCC3(CC2)CN(c2ncnc4ccc(CC(F)(F)F)cc24)C3)ccc2c1cc(C#N)n2CC(C)N1CCNC(=O)C1 (configuration not stated) [US20250163061, Compound 93] | < 75 nM |
| Cc1c(CN2CCC3(CC2)CN(c2ncnc4ccc(OC(F)(F)F)cc24)C3)ccc2c1cc(C#N)n2C[C@@H]1CNC(=O)CO1 [US20250163061, Compound 1] | < 75 nM |
| Cc1cc(CN2CCC3(CC2)CN(c2ncnc4ccc(CC(F)(F)F)cc24)C3)cc2c1cc(C#N)n2CC(C)N1CCN(S(C)(=O)=O)CC1 (configuration not stated) [US20250163061, Compound 83] | > 5000 nM |
| Cc1c(CN2CCC3(CC2)CN(c2ncnc4ccc(CC(F)(F)F)cc24)C3)ccc2c1cc(C#N)n2CC1CNS(=O)(=O)CO1 (configuration not stated) [US20250163061, Compound 21] | < 75 nM |
| CN(C)C/C=C/C(=O)N1CCN(CCn2c(C#N)cc3cc(CN4CCC5(CC4)CN(c4ncnc6ccc(CC(F)(F)F)cc46)C5)ccc32)CC1 [US20250163061, Compound 99] | < 75 nM |
| Cc1c(CN2CCC3(CC2)CN(c2ncnc4ccc(CC(F)(F)F)cc24)C3)ccc2c1cc(C#N)n2C[C@H]1CC[C@H](NS(C)(=O)=O)CC1 [US20250163061, Compound 40] | < 75 nM |
| Cc1c(CN2CCC3(CC2)CN(c2ncnc4ccc(C(F)(F)C(F)(F)F)cc24)C3)ccc2c1cc(C#N)n2C[C@H](C)N1CCN(S(C)(=O)=O)CC1 [US20250163061, Compound 75] | < 75 nM |
| Cc1c(CN2CCC3(CC2)CN(c2ncnc4ccc(CC(F)(F)F)cc24)C3)ccc2c1cc(C#N)n2CC1CCNC(=O)CO1 (configuration not stated) [US20250163061, Compound 2] | < 75 nM |
| Cc1c(CN2CCC3(CC2)CN(c2ncnc4ccc(CC(F)(F)F)cc24)C3)ccc2c1cc(C#N)n2CC1CNC(=O)C1 (configuration not stated) [US20250163061, Compound 51] | < 75 nM |
| Cc1c(CN2CCC3(CC2)CN(c2ncnc4ccc(CC(F)(F)F)c(F)c24)C3)ccc2c1cc(C#N)n2C[C@H](C)N1CCN(S(C)(=O)=O)CC1 [US20250163061, Compound 57] | < 75 nM |
| Cc1c(CN2CCC3(CC2)CN(c2ncnc4ccc(CC(F)(F)F)cc24)C3)ccc2c1cc(C#N)n2C[C@@H]1CNC(=O)CO1 [US20250163061, Compound 102] | < 75 nM |
| Cc1c(CN2CCC3(CC2)CN(c2ncnc4ccc(CC(F)(F)F)cc24)C3)ccc2[nH]c(C#N)cc12 [US20250163061, Compound 68] | < 75 nM |
| Cc1c(CN2CCC3(CC2)CN(c2ncnc4ccc(CC(F)(F)F)cc24)C3)ccc2c1cc(C#N)n2Cc1ccc(=O)[nH]c1 [US20250163061, Compound 14] | < 75 nM |
| COc1cc2c(cc1CN1CCC3(CC1)CN(c1ncnc4ccc(CC(F)(F)F)cc14)C3)cc(C#N)n2CC(C)N1CCN(S(C)(=O)=O)CC1 (configuration not stated) [US20250163061, Compound 20] | < 75 nM |
| Cc1c(CN2CCC3(CC2)CN(c2ncnc4ccc(CC(F)(F)F)cc24)C3)ccc2c1cc(C#N)n2C[C@H]1CNC(=O)CO1 [US20250163061, Compound 101] | < 75 nM |
